Measured values taken from patent US9695133B2, “Quinazolinone-based oncogenic-RAS-selective lethal compounds and their use” (THE TRUSTEES OF COLUMBIA UNIVERSITY IN THE CITY OF NEW YORK, priority 2012, dated 2017).

Key:
[1] = test system: BJeH, BJeHLT, BJeLR and DRD cells; assay type: cell-based; conditions: 0.4 μM RSL3, BJeLR vs BJeHLT cells
BJ-derived cell lines = test: GSH depletion assay in BJ-derived cell lines; assay type: cell-based, human; conditions: BJeLR cells, lethal RSL3 dose
Experimental: Bar graph: mean+s.d.; n=3. *, P<0.05.
2 million cells were seeded on 10 cm dishes. The next day, cells were treated with compounds to induce GSH depletion followed by harvesting to determine cell number. Two million live cells from each sample were transferred to new tubes, and centrifuged at 1,000 rpm at 4° C. for 5 minutes. The cell pellet was resuspended in 1 mL of PB buffer (10 mM sodium phosphate buffer, 1 mM EDTA, pH 7) and sonicated using 60 Joule energy. The lysate was centrifuged at 13,200 rpm at 4° C. for 10 minutes, and then the cleared lysate was used to determine the amount of GSH in the sample. The QuantiChrome glutathione assay kit (BioAssay Systems, cat # DIGT-250) was used and the product instructions were followed to determine GSH level.

GFP-ALOX5 = GFP-ALOX5 translocation in BJ-derived cell lines; assay type: cell-based, human
Experimental: A cDNA of ALOX5 (GeneBank ID: BC130332.1) was cloned into a pBabe-puro vector to express GFP fused ALOX5 (N-terminal GFP fusion) in cells. The plasmid was transfected into PLAT-GP cells (Cell Biolabs Inc., cat # RV-103, San Diego, Calif.) along with a pVSV-G helper plasmid to produce retrovirus harboring the expression plasmid. 0.2 million target cells (BJeH, BJeHLT, BJeLR or HT-1080 cells) were seeded in 10 cm tissue culture dishes and incubated in the tissue culture incubator for 1 day. A frozen stock of retrovirus solution was thawed at 37° C. for 2 minutes, and polybrene (Sigma, cat. # H9268) was added at a final concentration of 8 μg/mL. Culture medium was replaced with virus/polybrene mix and the culture dish was incubated for two hours with rocking every 30 minutes. After 2 hours, 10 mL of growth media was added to culture dish, and the culture was incubated further for 2 days. Cell lines stably expressing GFP-ALOX5 protein were selected using 1.5 μg/mL puromycin and used for the GFP-ALOX5 translocation assay.
ALOX5 is one of the six human ALOX genes and plays a critical role in leukotriene synthesis. In the basal state, the ALOX5 protein remains in the nucleus; however, upon activation, it translocates to the nuclear membrane (Chen et al., 2001). […] Second, calcium chelators were not effective in suppressing erastin-induced cell death (Wolpaw et al., 2011).

BJeLR cells = test: Lipid peroxide detection using BODIPY-C11 in BJ-derived cells; assay type: cell-based, human
ALOX15B and ALOXE3 = test: ALOX15B / ALOXE3 siRNA knockdown and lethal compound sensitivity in HT-1080 cells; assay type: cell-based, human
Experimental: HT-1080 cells were transfected with siRNA pools targeting either ALOX15B or ALOXE3, and then, treated with the indicated RSL compounds in 2-fold dilution series. 24 hours after compound treatment, alamar blue was added to the culture at a final concentration of 10% in growth media to determine cell viability. The percent growth inhibition was calculated from the fluorescence intensity of each well in 384-well assay plates. Data points represent mean of duplicates.
Small interfering RNA (siRNA) pools targeting ALOX15B and ALOXE3 were obtained from Dharmacon Technologies (Lafayette, Colo.). On the day of reverse-transfection, a cocktail of 1 mL of Opti-MEM (Invitrogen Corp., Carlsbad, Calif.), 6 μL of Lipofectamine RNAiMAX (Invitrogen), and 5 μL of 10 μM siRNA were prepared and transferred to each well of a 6-well plate. The 6-well plate was put in the tissue culture incubator for 20 minutes to allow the formation of transfection mixture. While the complex was forming, HT-1080 cells were trypsinized and the cell number was determined using ViCell (Trypan Blue). 200,000 cells were prepared in 1 mL of growth media with 2× serum, and then, the cell suspension was transferred to each well containing 1 mL of the transfection mix. The 6-well plate was returned to the incubator and the culture grown for 2 days. […]

COC(=O)c1ccc([C@@H]2c3[nH]c4ccccc4c3C[C@@H](C(=O)OC)N2C(=O)CCl)cc1 [RSL3]
selective lethality [1]: exhibited selective lethality in BJeLR cells | cellular GSH level (BJ-derived cell lines): remained unaffected | GFP-ALOX5 translocation to the nuclear membrane (GFP-ALOX5): caused GFP-ALOX5 translocation to the nuclear membrane | lipid peroxide generation (BODIPY-C11 fluorescence) (BJeLR cells): generation of lipid peroxides | effect of ALOX15B knockdown on compound-induced cell death (ALOX15B and ALOXE3): sensitized cells to RSL3-induced cell death | effect of ALOXE3 knockdown on compound-induced cell death (ALOX15B and ALOXE3): suppressed
